# Assay results: PMC2193345 (The Journal of Experimental Medicine, 2001)
# Assays:
# Type in all cases: cell-based
# CRTH2 [1] = biological target: T1, CRTH2 (Homo sapiens, UniProt Q9Y5Y4); test: 3H-PGD2 competition binding, K562/CRTH2 cells
# T1 sequence (Q9Y5Y4 1-395): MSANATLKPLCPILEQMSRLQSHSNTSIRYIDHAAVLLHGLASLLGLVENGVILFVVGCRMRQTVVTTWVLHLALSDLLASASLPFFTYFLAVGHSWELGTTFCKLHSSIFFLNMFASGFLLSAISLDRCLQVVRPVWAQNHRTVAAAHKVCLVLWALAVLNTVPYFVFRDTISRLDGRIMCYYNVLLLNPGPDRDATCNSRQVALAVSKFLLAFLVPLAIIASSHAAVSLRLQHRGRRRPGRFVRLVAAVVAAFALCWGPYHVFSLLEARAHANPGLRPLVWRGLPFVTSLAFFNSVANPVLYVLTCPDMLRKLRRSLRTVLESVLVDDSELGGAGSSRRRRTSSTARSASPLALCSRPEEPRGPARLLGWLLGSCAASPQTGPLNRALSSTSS
# DP [2] = biological target: T2, DP (Homo sapiens, UniProt Q13258); test: 3H-PGD2 competition binding, K562/DP cells
# T2 sequence (Q13258 1-359): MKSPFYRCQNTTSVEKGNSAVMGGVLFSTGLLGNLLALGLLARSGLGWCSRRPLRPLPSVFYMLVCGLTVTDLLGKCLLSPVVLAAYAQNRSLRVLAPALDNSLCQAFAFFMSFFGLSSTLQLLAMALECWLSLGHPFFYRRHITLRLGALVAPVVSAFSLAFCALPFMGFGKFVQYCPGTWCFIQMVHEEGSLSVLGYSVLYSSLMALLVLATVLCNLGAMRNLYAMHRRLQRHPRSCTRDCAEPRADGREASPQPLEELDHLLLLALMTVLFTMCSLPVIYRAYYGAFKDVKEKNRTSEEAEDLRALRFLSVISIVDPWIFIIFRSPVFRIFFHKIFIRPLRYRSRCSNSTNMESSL
# CRTH2 [3] = biological target: T1, CRTH2; test: 3H-PGD2 saturation binding
# DP [4] = biological target: T2, DP; test: 3H-PGD2 saturation binding
SMILES,Ki (CRTH2 [1]) [nM],Ki (DP [2]) [nM],Kd (CRTH2 [3]) [nM],Kd (DP [4]) [nM]
"CCCCCC(=O)CC[C@H]1C(=O)C[C@H](O)[C@@H]1C/C=C\CCCC(=O)O [DK-PGD2, 13,14-dihydro-15-keto-PGD2]",160 ± 35,> 30000,,
CCCCC[C@H](O)/C=C/[C@H]1C(=O)C[C@H](O)[C@@H]1C/C=C\CCCC(=O)OC [PGD2 methyl ester],460 ± 120,270 ± 46,,
CCCCC[C@H](O)/C=C/C=C\C=C\C=C\[C@@H](O)[C@@H](O)CCCC(=O)O [LXA4],> 30000,> 30000,,
O=C(O)CCCCCC[C@H]1C(=O)NC(=O)N1CC[C@@H](O)C1CCCCC1 [BW245C],> 100000,50 ± 20,,
"CCCCC/C=C/C=C1/C(=O)C=C[C@@H]1C/C=C\CCCC(=O)O [15-deoxy-Δ^12,14-PGJ2]",2300,> 30000,,
CCCCC/C=C\C[C@@H](O)/C=C/C=C/C=C\[C@@H](O)CCCC(=O)O [LTB4],> 30000,> 30000,,
CCCCC[C@H](O)C/C=C1/C(=O)C=C[C@@H]1C/C=C\CCCC(=O)O [Δ^12-PGJ2],7100,5200,,

# Results, then the molecule that gave them:
Ki (CRTH2 [1]) [nM],Ki (DP [2]) [nM],Kd (CRTH2 [3]) [nM],Kd (DP [4]) [nM],SMILES
20000,1200,,,CCCCC[C@H](O)/C=C/[C@@H]1[C@@H](C/C=C\CCCC(=O)O)[C@@H](O)C[C@@H]1O [11β-PGF2α]
3100,2300,,,CCCCC[C@H](O)/C=C/[C@H]1[C@H](O)CC(=O)[C@@H]1C/C=C\CCCC(=O)O [PGE2]
2000,> 30000,,,CCCCC[C@H](O)/C=C/[C@@H]1[C@@H](C/C=C\CCCC(=O)O)[C@@H](O)C[C@H]1O [PGF2α]
61 ± 23,45 ± 17,31.3,37.7,CCCCC[C@H](O)/C=C/[C@H]1C(=O)C[C@H](O)[C@@H]1C/C=C\CCCC(=O)O [PGD2]
> 30000,> 30000,,,CCCCC[C@H](O)/C=C/[C@@H]1[C@@H](C/C=C\CCCC(=O)O)[C@H]2CO[C@@H]1C2 [U46619]
> 30000,> 30000,,,CCCCC[C@H](O)/C=C/[C@H]1C=CC(=O)[C@@H]1C/C=C\CCCC(=O)O [PGA2]
460 ± 160,64 ± 13,,,CCCCC[C@H](O)/C=C/[C@H]1C(=O)C=C[C@@H]1C/C=C\CCCC(=O)O [PGJ2]
